molecular target: hS1P3 (Homo sapiens, UniProt Q99500); test: Suppressive effect on S1P-induced increase in [Ca2+]i, CHO-K1 cells expressing S1P3 (Fura 2-AM), IC50; format: cell-based; settings: S1P solution 50 nmol/L, read-out: hS1P3 suppression IC50
Sequence (Q99500 whole entry): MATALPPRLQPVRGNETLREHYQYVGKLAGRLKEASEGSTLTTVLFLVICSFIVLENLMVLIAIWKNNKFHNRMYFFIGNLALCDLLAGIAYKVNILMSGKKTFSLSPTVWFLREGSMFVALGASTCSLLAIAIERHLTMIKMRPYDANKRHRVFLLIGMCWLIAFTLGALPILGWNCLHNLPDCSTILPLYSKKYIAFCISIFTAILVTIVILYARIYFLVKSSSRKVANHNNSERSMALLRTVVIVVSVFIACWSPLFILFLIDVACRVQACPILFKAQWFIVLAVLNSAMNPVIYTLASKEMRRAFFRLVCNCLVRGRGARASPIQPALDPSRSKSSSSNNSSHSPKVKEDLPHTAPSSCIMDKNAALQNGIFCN

Compound	IC50 [µM]
C#Cc1ccc(NC(=NNc2ccc(C(C)=O)cc2)C(=O)C(C)(C)C)cc1 [Compound 95, 1-(4-acetylphenylhydrazono)-1-(4-ethynylphenylamino)-3,3-dimethyl-2-butanone]	18.6
O=C(C(=NNc1ccc(Cl)cc1)Nc1cc(Cl)nc(Cl)c1)c1ccccc1 [Compound 4, 2-(4-chlorophenylhydrazono)-2-(2,6-dichloropyridin-4-ylamino)acetophenone]	2.81
CC(C)(C)NC(=O)C(=NNc1ccc(Cl)cc1)Nc1cc(Cl)cc(Cl)c1 [Compound 30, N-tert-butyl-[1-(4-chlorophenylhydrazono)-1-(3,5-dichlorophenylamino)]acetamide]	12.3
O=C(C(=NNc1ccc(Cl)cc1)Nc1ccc(Cl)cc1)c1ccccc1 [Compound 12, 2-(4-chlorophenylamino)-2-(4-chlorophenylhydrazono)acetophenone]	4.84
CC(C)(C)C(=O)C(=NNc1ccc(Br)cc1)Nc1ccc(C#N)cc1 [Compound 77, 1-(4-bromophenylhydrazono)-1-(4-cyanophenylamino)-3,3-dimethyl-2-butanone]	1.51
CC(C)(C)C(=O)C(=NNc1ccc(Cl)cc1)Nc1cc(Cl)nc(Cl)c1 [Compound 35, 1-(4-chlorophenylhydrazono)-1-(2,6-dichloropyridin-4-ylamino)-3,3-dimethyl-2-butanone]	7.49
CCOC(=O)C(=NNc1ccc(Cl)cc1)Nc1cccc(C(F)(F)F)c1 [Compound 16, ethyl 1-(4-chlorophenylhydrazono)-1-(3-trifluoromethylphenylamino)acetate]	3.94
CC(C)(C)C(=O)C(=NNc1ccc(C(F)(F)F)cc1)Nc1ccc(Cl)c(Cl)c1 [Compound 72, 1-(3,4-dichlorophenylamino)-1-(4-trifluoromethylphenylhydrazono)-3,3-dimethyl-2-butanone]	3.64
CCOC(=O)C(=NNc1ccc(Cl)cc1)Nc1cc(F)cc(F)c1 [Compound 17, ethyl 1-(4-chlorophenylhydrazono)-1-(3,5-difluorophenylamino)acetate]	1.92
CC(C)(C)C(=O)C(=NNc1ccc(Cl)cc1)Nc1cc(Cl)cc(Cl)c1 [Compound 37, 1-(4-chlorophenylhydrazono)-1-(3,5-dichlorophenylamino)-3,3-dimethyl-2-butanone]	0.49
CC(C)(C)C(=O)C(=NNc1ccccc1)Nc1cc(Cl)cc(Cl)c1 [Compound 51, 1-(3,5-dichlorophenylamino)-1-(phenylhydrazono)-3,3-dimethyl-2-butanone]	2.44
CC(C)(C)C(=O)C(=NNc1ccc(C#N)cc1)Nc1ccc(F)cc1 [Compound 82, 1-(4-cyanophenylhydrazono)-1-(4-fluorophenylamino)-3,3-dimethyl-2-butanone]	5.07
CC(C)(C)C(=O)C(=NNc1ccc(Cl)cc1)Nc1cc(F)cc(F)c1 [Compound 34, 1-(4-chlorophenylhydrazono)-1-(3,5-difluorophenylamino)-3,3-dimethyl-2-butanone]	1.22
CC(C)(C)C(=O)C(=NNc1ccc(C(F)(F)F)cc1)Nc1cccc(F)c1 [Compound 66, 1-(3-fluorophenylamino)-1-(4-trifluoromethylphenylhydrazono)-3,3-dimethyl-2-butanone]	7.05
CC(C)(C)C(=O)C(=NNc1ccc(Cl)c(Cl)c1)Nc1ccc(Cl)cc1 [Compound 124, 1-(4-chlorophenylamino)-1-(3,4-dichlorophenylhydrazono)-3,3-dimethyl-2-butanone]	0.45
COc1ccc(NC(=NNc2ccc(C#N)cc2)C(=O)C(C)(C)C)cc1 [Compound 87, 1-(4-cyanophenylhydrazono)-1-(4-methoxyphenylamino)-3,3-dimethyl-2-butanone]	14
CC(C)(C)C(=O)C(=NNc1ccc(F)cc1)Nc1cc(Cl)cc(Cl)c1 [Compound 59, 1-(3,5-dichlorophenylamino)-1-(4-fluorophenylhydrazono)-3,3-dimethyl-2-butanone]	1.39
CC(=O)c1ccc(NN=C(Nc2cccc(F)c2)C(=O)C(C)(C)C)cc1 [Compound 91, 1-(4-acetylphenylhydrazono)-1-(3-fluorophenylamino)-3,3-dimethyl-2-butanone]	8.9
CC(C)(C)C(=O)C(=NNc1ccc(F)cc1)Nc1ccc(C(F)(F)F)cc1 [Compound 58, 1-(4-fluorophenylhydrazono)-1-(4-trifluoromethylphenylamino)-3,3-dimethyl-2-butanone]	5.72
CC(C)(C)C(=O)C(=NNc1ccc(Cl)cc1)Nc1cccc(C(F)(F)F)c1 [Compound 36, 1-(4-chlorophenylhydrazono)-1-(3-trifluoromethylphenylamino)-3,3-dimethyl-2-butanone]	2.53
CC(C)(C)CC(=O)C(=NNc1ccc(Cl)cc1)Nc1ccc(F)cc1 [Compound 114, 1-(4-chlorophenylhydrazono)-1-(4-fluorophenylamino)-4,4-dimethyl-2-pentanone]	2.09
C#Cc1cccc(NC(=NNc2ccc(Cl)c(Cl)c2)C(=O)C(C)(C)C)c1 [Compound 107, 1-(3,4-dichlorophenylhydrazono)-1-(3-ethynylphenylamino)-3,3-dimethyl-2-butanone]	0.69

Compound	IC50 [µM]
O=C(C(=NNc1ccc(Cl)cc1)Nc1cc(F)cc(F)c1)N1CCCCC1 [Compound 25, [1-(4-chlorophenylhydrazono)-1-(3,5-difluorophenylamino)acetyl]piperidine]	11.7
CC(C)(C)C(=O)C(=NNc1ccc(F)cc1)Nc1ccc(Cl)cc1 [Compound 55, 1-(4-chlorophenylamino)-1-(4-fluorophenylhydrazono)-3,3-dimethyl-2-butanone]	2.75
CC(C)(C)NC(=O)C(=NNc1ccc(Cl)cc1)Nc1ccc(Cl)c(Cl)c1 [Compound 31, N-tert-butyl-[1-(4-chlorophenylhydrazono)-1-(3,4-dichlorophenylamino)]acetamide]	10.5
O=C(C(=NNc1ccc(Cl)cc1)Nc1ccc(F)cc1)c1ccccc1 [Compound 9, 2-(4-chlorophenylhydrazono)-2-(4-fluorophenylamino)acetophenone]	4.57
O=C(C(=NNc1ccc(Cl)cc1)Nc1ccc(Cl)cc1)c1ccco1 [Compound 116, 1-(4-chlorophenylamino)-1-(4-chlorophenylhydrazono)-2-(2-furyl)-2-ethanone]	2.07
O=C(C(=NNc1ccc(Cl)cc1)Nc1ccc(F)cc1)c1ccco1 [Compound 118, 1-(4-chlorophenylhydrazono)-1-(4-fluorophenylamino)-2-(2-furyl)-2-ethanone]	3.85
C#Cc1ccc(NC(=NNc2ccc(Cl)c(Cl)c2)C(=O)C(C)(C)C)cc1 [Compound 132, 1-(3,4-dichlorophenylhydrazono)-1-(4-ethynylphenylamino)-3,3-dimethyl-2-butanone]	0.82
CCOC(=O)C(=NNc1ccc(Cl)cc1)Nc1ccc(Cl)cc1 [Compound 14, ethyl 1-(4-chlorophenylamino)-1-(4-chlorophenylhydrazono)acetate]	1.87
O=C(C(=NNc1ccc(Cl)cc1)Nc1ccc(Cl)cc1)N1CCCCC1 [Compound 23, [1-(4-chlorophenylamino)-1-(4-chlorophenylhydrazono)acetyl]piperidine]	14.5
CC(C)(C)C(=O)C(=NNc1ccc(S(C)(=O)=O)cc1)Nc1ccc(Cl)cc1 [Compound 99, 1-(4-chlorophenylamino)-1-(4-methanesulfonylphenylhydrazono)-3,3-dimethyl-2-butanone]	10.6
CCOC(=O)C(=NNc1ccc(Cl)cc1)Nc1cc(Cl)cc(Cl)c1 [Compound 18, ethyl 1-(4-chlorophenylhydrazono)-1-(3,5-dichlorophenylamino)acetate]	2.34
CC(=O)c1ccc(NN=C(Nc2ccc(F)cc2)C(=O)C(C)(C)C)cc1 [Compound 92, 1-(4-acetylphenylhydrazono)-1-(4-fluorophenylamino)-3,3-dimethyl-2-butanone]	11.6
COc1ccc(NN=C(Nc2ccc(Cl)cc2)C(=O)C(C)(C)C)cc1 [Compound 90, 1-(4-chlorophenylamino)-1-(4-methoxyphenylhydrazono)-3,3-dimethyl-2-butanone]	6.58
O=C(C(=NNc1ccc(Cl)cc1)Nc1ccc(Cl)cc1)c1cccs1 [Compound 125, 1-(4-chlorophenylamino)-1-(4-chlorophenylhydrazono)-2-(2-thienyl)-2-ethanone]	8.29
C#Cc1ccc(NC(=NNc2ccc(C#N)cc2)C(=O)C(C)(C)C)cc1 [Compound 86, 1-(4-cyanophenylhydrazono)-1-(4-ethynylphenylamino)-3,3-dimethyl-2-butanone]	6.64
CC(C)(C)C(=O)C(=NNc1ccc(C(F)(F)F)cc1)Nc1ccc(Cl)cc1 [Compound 68, 1-(4-chlorophenylamino)-1-(4-trifluoromethylphenylhydrazono)-3,3-dimethyl-2-butanone]	9.09
CCCCC(=O)C(=NNc1ccc(Cl)cc1)Nc1ccc(Cl)c(Cl)c1 [Compound 109, 1-(4-chlorophenylhydrazono)-1-(3,4-dichlorophenylamino)-2-hexanone]	0.76
O=C(C(=NNc1ccc(Cl)cc1)Nc1ccc(Br)cc1)c1ccco1 [Compound 119, 1-(4-bromophenylamino)-1-(4-chlorophenylhydrazono)-2-(2-furyl)-2-ethanone]	4.23
CC(C)(C)C(=O)C(=NNc1ccc(F)cc1)Nc1ccc(Br)cc1 [Compound 56, 1-(4-bromophenylamino)-1-(4-fluorophenylhydrazono)-3,3-dimethyl-2-butanone]	2.16
CC(C)(C)C(=O)C(=NNc1ccc(C#N)cc1)Nc1cccc(F)c1 [Compound 81, 1-(4-cyanophenylhydrazono)-1-(3-fluorophenylamino)-3,3-dimethyl-2-butanone]	5.52
CCCCC(=O)C(=NNc1ccc(Cl)cc1)Nc1cccc(Cl)c1 [Compound 141, 1-(3-chlorophenylamino)-1-(4-chlorophenylhydrazono)-2-hexanone]	1.99
CC(C)(C)C(=O)C(=NNc1ccc(Cl)cc1)Nc1ccc(Cl)c(F)c1 [Compound 135, 1-(4-chloro-3-fluorophenylamino)-1-(4-chlorophenylhydrazono)-3,3-dimethyl-2-butanone]	0.9

— patent publication US8546452B2, “S1P3 receptor antagonist” (TOA Eiyo Ltd., priority 2005, dated 2013)
